Assay results published in US10722514B2 (FLX Bio, Inc., priority 2017, dated 2020).
Counter-ions that a name gives are not always drawn.

Each molecule was assayed against T1, recombinant full-length USP7 (Homo sapiens, UniProt Q93009) (assay: USP7-mediated ubiquitin-rhodamine cleavage assay). Details: recombinant full-length USP7 62 pM; ubiquitin-rhodamine 100 nM; 30-minute incubation with compound, 1 hour reaction at room temperature; read-out: Potency: USP7 IC50.
T1 construct: A 25 μl reaction volume containing recombinant full-length USP7 (62 pM)
T1 sequence (Q93009 whole entry): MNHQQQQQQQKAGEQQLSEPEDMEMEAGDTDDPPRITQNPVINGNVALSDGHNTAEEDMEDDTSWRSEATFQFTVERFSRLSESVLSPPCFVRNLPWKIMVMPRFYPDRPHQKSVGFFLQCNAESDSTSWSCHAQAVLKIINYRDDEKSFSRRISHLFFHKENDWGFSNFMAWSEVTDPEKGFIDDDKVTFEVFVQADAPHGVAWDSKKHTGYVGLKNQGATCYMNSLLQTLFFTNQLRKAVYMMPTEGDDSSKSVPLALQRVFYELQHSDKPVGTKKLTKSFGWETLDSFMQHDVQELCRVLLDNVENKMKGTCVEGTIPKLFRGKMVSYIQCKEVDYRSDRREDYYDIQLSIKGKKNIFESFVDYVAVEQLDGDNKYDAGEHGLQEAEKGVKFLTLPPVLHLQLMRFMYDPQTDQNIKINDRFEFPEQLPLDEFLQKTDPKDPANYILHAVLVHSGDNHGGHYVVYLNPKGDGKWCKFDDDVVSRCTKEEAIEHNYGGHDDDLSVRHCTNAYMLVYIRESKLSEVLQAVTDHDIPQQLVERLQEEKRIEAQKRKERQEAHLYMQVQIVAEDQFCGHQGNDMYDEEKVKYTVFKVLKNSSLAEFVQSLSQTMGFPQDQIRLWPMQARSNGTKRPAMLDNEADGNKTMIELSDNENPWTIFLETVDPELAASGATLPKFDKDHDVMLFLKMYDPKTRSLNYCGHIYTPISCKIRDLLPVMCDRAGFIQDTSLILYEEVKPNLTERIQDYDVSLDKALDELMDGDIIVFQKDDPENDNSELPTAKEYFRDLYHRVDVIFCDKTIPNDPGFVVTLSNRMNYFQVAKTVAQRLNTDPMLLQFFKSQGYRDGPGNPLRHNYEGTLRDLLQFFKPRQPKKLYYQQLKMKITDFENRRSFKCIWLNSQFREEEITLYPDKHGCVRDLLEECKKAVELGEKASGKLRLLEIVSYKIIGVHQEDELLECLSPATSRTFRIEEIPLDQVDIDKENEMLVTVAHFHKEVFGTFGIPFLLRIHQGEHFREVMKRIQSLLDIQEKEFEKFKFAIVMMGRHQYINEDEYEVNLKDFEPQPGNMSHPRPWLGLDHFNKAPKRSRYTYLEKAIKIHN
Assay type: biochemical
Summary of the method: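 Full-length recombinant USP7 (62 pM) in 20 mM HEPES pH 7.3, 150 mM NaCl, 1 mM TCEP, 125 μg/ml BSA, 1% DMSO, preincubated with compound 30 min at RT. Ubiquitin-rhodamine (100 nM final) cleaved 1 h at RT in the dark, stopped with acetic acid; rhodamine fluorescence read, IC50 by 4-parameter nonlinear fit.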

Row | Structure (SMILES) | IC50 [nM]
1 | Cc1cc(Cl)cc(-c2ccnc3cc(CN4C(=O)C5C(C4=O)C5(C)C)sc23)c1OCC1(C)CNC1 (centres unmarked) [Example 400, 3-[[7-[5-chloro-3-methyl-2-[(3-methylazetidin-3-yl)methoxy]phenyl]thieno[3,2-b]pyridin-2-yl]methyl]-6,6-dimethyl-3-azabicyclo[3.1.0]hexane-2,4-dione] | < 1000
2 | Cc1cc(Cl)cc(-c2ncnc3cc(CN4C(=O)C5C(C4=O)C5(C)C)sc23)c1O[C@@H]1CNCC(C)(C)C1 (stereo partly drawn) [Example 361, 3-[[4-[5-chloro-2-[[(3S)-5,5-dimethyl-3-piperidyl]oxy]-3-methyl-phenyl]thieno[3,2-d]pyrimidin-6-yl]methyl]-6,6-dimethyl-3-azabicyclo[3.1.0]hexane-2,4-dione] | < 1000
3 | Cc1cc(C)c(O[C@H]2CCCNC2)c(-c2ccnc3cc(CO)sc23)c1 [Example 248, (S)-(7-(3,5-Dimethyl-2-(piperidin-3-yloxy)phenyl)thieno[3,2-b]pyridin-2-yl)methanol] | 10000 to 30000
4 | Cc1cc(Cl)cc(-c2ccnc3cc(CN4C(=O)C5CCC5C4=O)sc23)c1O[C@@H]1CN(C(=O)OC(C)(C)C)C[C@@H]1F (stereo partly drawn) [Example 355, tert-butyl (3R,4S)-3-[4-chloro-2-[2-[(2,4-dioxo-3-azabicyclo[3.2.0]heptan-3-yl)methyl]thieno[3,2-b]pyridin-7-yl]-6-methyl-phenoxy]-4-fluoro-pyrrolidine-1-carboxylate; 2,2,2-trifluoroacetic acid] | < 1000
5 | Cc1cc(Cl)cc(-c2ccnc3cc(CN4C(=O)C5C(C4=O)C5(C)C)sc23)c1O[C@@H]1CCNC[C@@H]1F (stereo partly drawn) [Example 382, 3-[[7-[5-chloro-2-[[(3S,4R)-3-fluoro-4-piperidyl]oxy]-3-methyl-phenyl]thieno[3,2-b]pyridin-2-yl]methyl]-6,6-dimethyl-3-azabicyclo[3.1.0]hexane-2,4-dione; 2,2,2-trifluoroacetic acid] | < 1000
6 | O=C(O)C(F)(F)F.[2H]C1([2H])C(=O)N(Cc2cc3nccc(-c4cc(Cl)cc(C)c4O[C@@H]4CNC[C@@H]4F)c3s2)C(=O)C1([2H])[2H] [Example 384, 1-[[7-[5-chloro-2-[(3R,4S)-4-fluoropyrrolidin-3-yl]oxy-3-methyl-phenyl]thieno[3,2-b]pyridin-2-yl]methyl]-3,3,4,4-tetradeuterio-pyrrolidine-2,5-dione; 2,2,2-trifluoroacetic acid] | < 1000
7 | Cc1cc(Cl)cc(-c2ccnc3cc(CN4C(=O)C5C(C4=O)C5(C)C)sc23)c1OC1CCNC1(C)C (centres unmarked) [Example 368, 3-[[7-[5-chloro-2-(2,2-dimethylpyrrolidin-3-yl)oxy-3-methyl-phenyl]thieno[3,2-b]pyridin-2-yl]methyl]-6,6-dimethyl-3-azabicyclo[3.1.0]hexane-2,4-dione] | < 1000
8 | Cc1cc(Cl)cc(-c2ccnc3cc(CN4C(=O)CCC4=O)sc23)c1OCC1(C#N)CNC1 [Example 12, 3-((4-Chloro-2-(2-((2,5-dioxopyrrolidin-1-yl)methyl)thieno[3,2-b]pyridin-7-yl)-6-methylphenoxy)methyl)azetidine-3-carbonitrile] | < 1000
9 | Cc1cc(Cl)cc(-c2ccnc3cc(CN4C(=O)CCC4=O)sc23)c1O[C@@H]1CNC(C(=O)N(C)C)C1 (stereo partly drawn) [Example 64, (4S)-4-(4-Chloro-2-(2-((2,5-dioxopyrrolidin-1-yl)methyl)thieno[3,2-b]pyridin-7-yl)-6-methylphenoxy)-N,N-dimethylpyrrolidine-2-carboxamide] | 1000 to 10000
10 | CC[C@@H](c1cc2nccc(-c3cc(Cl)cc(C)c3O[C@H]3CCCNC3)c2s1)N1C(=O)CCC1=O [Example 257, 1-((S)-1-(7-(5-Chloro-3-methyl-2-(((S)-piperidin-3-yl)oxy)phenyl)thieno[3,2-b]pyridin-2-yl)propyl)pyrrolidine-2,5-dione] | < 1000
11 | Cc1cc(Cl)cc(-c2ccnc3cc(CO)sc23)c1OCC1(F)CNC1 [Example 20, (7-(5-Chloro-2-((3-fluoroazetidin-3-yl)methoxy)-3-methylphenyl)thieno[3,2-b]pyridin-2-yl)methanol] | 1000 to 10000
12 | Cc1cc(Cl)cc(-c2ccnc3cc(CN4C(=O)C5C(C4=O)C5(C)C)sc23)c1OC1CN(C)CC1(C)F (centres unmarked) [Example 375, 3-[[7-[5-chloro-2-(4-fluoro-1,4-dimethyl-pyrrolidin-3-yl)oxy-3-methyl-phenyl]thieno[3,2-b]pyridin-2-yl]methyl]-6,6-dimethyl-3-azabicyclo[3.1.0]hexane-2,4-dione dihydrochloride] | < 1000
13 | Cc1cc(Cl)cc(-c2ccnc3c(F)c(CN4C(=O)CCC4=O)sc23)c1O[C@@H]1CNC[C@@H]1F [Example 65, 1-((7-(5-Chloro-2-(((3R,4S)-4-fluoropyrrolidin-3-yl)oxy)-3-methylphenyl)-3-fluorothieno[3,2-b]pyridin-2-yl)methyl)pyrrolidine-2,5-dione] | < 1000
14 | Cc1cc(Cl)cc(-c2ccnc3cc(CN4C(=O)CCC4=O)sc23)c1OC1CCNC1(C)C (centres unmarked) [Example 343, 1-[[7-[5-chloro-2-(2,2-dimethylpyrrolidin-3-yl)oxy-3-methyl-phenyl]thieno[3,2-b]pyridin-2-yl]methyl]pyrrolidine-2,5-dione] | < 1000

Same assay, conditions: recombinant full-length USP7 62 pM; ubiquitin-rhodamine 100 nM; 30-minute pre-incubation, 1 hour reaction at room temperature; read-out: Potency (USP7 IC50)

Row | Structure (SMILES) | IC50 [nM]
15 | Cc1cc(Cl)cc(-c2ccnc3cc(Cn4c(=O)ccn(C)c4=O)sc23)c1OC1CNCC(F)(F)C1 (centres unmarked) [Example 442, 3-[[7-[5-chloro-2-[(5,5-difluoro-3-piperidyl)oxy]-3-methyl-phenyl]thieno[3,2-b]pyridin-2-yl]methyl]-1-methyl-pyrimidine-2,4-dione; 2,2,2-trifluoroacetic acid] | < 1000
16 | Cc1cc(Cl)cc(-c2ccnc3cc(CN4C(=O)CCC4=O)sc23)c1O[C@H]1CCCN(C)C1 [Example 448, 1-[[7-[5-chloro-3-methyl-2-[[(3S)-1-methyl-3-piperidyl]oxy]phenyl]thieno[3,2-b]pyridin-2-yl]methyl]pyrrolidine-2,5-dione] | < 1000
17 | Cc1cc(Cl)cc(-c2ccnc3cc(CN4C(=O)CCC4=O)sc23)c1OC1CC[C@H](C)NC1 (stereo partly drawn) [Example 462, 1-[[7-[5-chloro-3-methyl-2-[[(6S)-6-methyl-3-piperidyl]oxy]phenyl]thieno[3,2-b]pyridin-2-yl]methyl]pyrrolidine-2,5-dione; 2,2,2-trifluoroacetic acid] | < 1000

The next lines start with the values.

Row | IC50 [nM] | Structure (SMILES)
18 | < 1000 | Cc1cc(Cl)cc(-c2ccnc3cc(Cn4c(=O)ccn(C)c4=O)sc23)c1O[C@H]1CCN[C@@H](C)C1 [Example 593, 3-[[7-[5-chloro-3-methyl-2-[[(2S,4S)-2-methyl-4-piperidyl]oxy]phenyl]thieno[3,2-b]pyridin-2-yl]methyl]-1-methyl-pyrimidine-2,4-dione]
19 | < 1000 | Cc1cc(Cl)cc(-c2ccnc3cc(Cn4c(=O)ccn(C)c4=O)sc23)c1OCCN [Example 552, 3-[[7-[2-(2-aminoethoxy)-5-chloro-3-methyl-phenyl]thieno[3,2-b]pyridin-2-yl]methyl]-1-methyl-pyrimidine-2,4-dione; 2,2,2-trifluoroacetic acid]
20 | < 1000 | CCN1CC[C@H](Oc2c(C)cc(Cl)cc2-c2ccnc3cc(Cn4c(=O)ccn(C)c4=O)sc23)CC1(C)C [Example 491, 3-[[7-[5-chloro-2-[[(4S)-1-ethyl-2,2-dimethyl-4-piperidyl]oxy]-3-methyl-phenyl]thieno[3,2-b]pyridin-2-yl]methyl]-1-methyl-pyrimidine-2,4-dione; 2,2,2-trifluoroacetic acid]
21 | < 1000 | Cc1cc([N+](=O)[O-])cc(-c2ccnc3cc(Cn4c(=O)ccn(C)c4=O)sc23)c1O[C@H]1CCCNC1 [Example 573, 1-methyl-3-[[7-[3-methyl-5-nitro-2-[[(3S)-3-piperidyl]oxy]phenyl]thieno[3,2-b]pyridin-2-yl]methyl]pyrimidine-2,4-dione; 2,2,2-trifluoroacetic acid]
22 | < 1000 | Cc1cc(Cl)cc(-c2ccnc3cc(Cn4c(=O)ccn(CC(F)(F)F)c4=O)sc23)c1O[C@H]1CNC[C@@H]1C [Example 567, 3-[[7-[5-chloro-3-methyl-2-[(3R,4S)-4-methylpyrrolidin-3-yl]oxy-phenyl]thieno[3,2-b]pyridin-2-yl]methyl]-1-(2,2,2-trifluoroethyl)pyrimidine-2,4-dione]
23 | < 1000 | COC(=O)[C@H]1C[C@H](Oc2c(C)cc(Cl)cc2-c2ccnc3cc(Cn4c(=O)ccn(CC(F)(F)F)c4=O)sc23)CN1 [Example 653, methyl (2R,4S)-4-[4-chloro-2-[2-[[2,6-dioxo-3-(2,2,2-trifluoroethyl)pyrimidin-1-yl]methyl]thieno[3,2-b]pyridin-7-yl]-6-methyl-phenoxy]pyrrolidine-2-carboxylate]
24 | < 1000 | CO[C@@H]1CC(=O)N(Cc2cc3nccc(-c4cc(Cl)cc(C)c4O[C@H]4CCCNC4)c3s2)C1=O [Example 481, (3R)-1-[[7-[5-chloro-3-methyl-2-[[(3S)-3-piperidyl]oxy]phenyl]thieno[3,2-b]pyridin-2-yl]methyl]-3-methoxy-pyrrolidine-2,5-dione; 2,2,2-trifluoroacetic acid]
25 | < 1000 | Cc1cc(Cl)cc(-c2ccnc3cc(Cn4c(=O)c(F)cn(C)c4=O)sc23)c1O[C@@H]1CNC[C@@H]1F [Example 470, 3-[[7-[5-chloro-2-[(3R,4S)-4-fluoropyrrolidin-3-yl]oxy-3-methyl-phenyl]thieno[3,2-b]pyridin-2-yl]methyl]-5-fluoro-1-methyl-pyrimidine-2,4-dione]
26 | < 1000 | Cc1cc(Cl)cc(-c2ncnc3cc(Cn4c(=O)ccn(C(C)C)c4=O)sc23)c1O[C@H]1CCCNC1 [Example 489, 3-[[4-[5-chloro-3-methyl-2-[[(3S)-3-piperidyl]oxy]phenyl]thieno[3,2-d]pyrimidin-6-yl]methyl]-1-isopropyl-pyrimidine-2,4-dione]
